We go through eight molecules from PubChem BioAssay (NCI).

As a reminder, the TGI is the concentration giving total growth inhibition. Read a high TGI as lower sensitivity of the cells. By GI50 is commonly meant the concentration that inhibits growth by half.

Some test systems named below: NCI/ADR-RES ovarian; UACC-257 melanoma; U251 CNS; PC-3 prostate; TK-10 renal; SNB-19 CNS; NCI-H460 lung; HT29 colon; SN12C renal; OVCAR-4 ovarian.
Holding throughout (experiment): DTP human tumour cell line panel, 48 h

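Exposure lasted 48 hours, with cells grown in 96-well plates and compounds tested at five concentrations. GI50 marks 50% less growth. TGI: concentration producing complete growth inhibition.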

For `C[N+](C)(C)CC1CCCC1=O` (centres undefined), the total growth inhibition concentration (TGI) was 4.05 µM in the experiment with NCI/ADR-RES ovarian; 13.3 µM in the experiment with UACC-257 melanoma; 29.3 µM with U251 CNS; 2.91 µM with PC-3 prostate; 6.76 µM in the experiment on TK-10 renal; 50.8 µM in the experiment on SNB-19 CNS. For the same molecule, the concentration for total growth inhibition (TGI) in the experiment on NCI-H460 lung is 38.9 µM; with HT29 colon, 3.34 µM; with SN12C renal, 5.56 µM; in the experiment with OVCAR-4 ovarian, 1.8 µM.

For the molecule `COC1C(N)C(OC2C(Oc3cccc4c(O)c5c(=O)oc6ccc(C)c7c(=O)oc(c34)c5c67)OC(C)C(O)C2(C)O)OC(C)C1O` (centres undefined), the TGI with NCI/ADR-RES ovarian stood at 12.1 µM; in the experiment with UACC-257 melanoma, 0.277 µM; in the experiment on U251 CNS, 0.789 µM; in the experiment with PC-3 prostate, 1.18 µM; with TK-10 renal, 1.27 µM; with SNB-19 CNS, 0.469 µM. Also, the TGI in the experiment with NCI-H460 lung was 0.139 µM; with HT29 colon, 0.436 µM; in the experiment with SN12C renal, 0.547 µM; in the experiment with OVCAR-4 ovarian, 2.28 µM.

Consider `Cc1cccc2c3c(sc12)C(c1ccc(Cl)cc1)C(C#N)=C(N)O3` (centres undefined), for which the GI50 with NCI/ADR-RES ovarian was 0.302 µM; with UACC-257 melanoma, 11.8 µM; in the experiment on U251 CNS it was 0.408 µM; with PC-3 prostate, 0.395 µM; with TK-10 renal, 5.92 µM; with SNB-19 CNS, 0.452 µM. In addition, the 50% growth inhibitory concentration (GI50) with NCI-H460 lung is 0.37 µM; in the experiment on HT29 colon, 0.394 µM; in the experiment with SN12C renal it was 0.544 µM; in the experiment with OVCAR-4 ovarian it was 2.08 µM. Besides, the TGI worked out at 2.46 µM with NCI/ADR-RES ovarian; 27.3 µM in the experiment with UACC-257 melanoma; 11 µM with U251 CNS; 12.8 µM with PC-3 prostate; 21.7 µM in the experiment on TK-10 renal; 12.6 µM in the experiment on SNB-19 CNS. The total growth inhibition concentration (TGI) with NCI-H460 lung amounted to 3.92 µM; in the experiment on HT29 colon, 6.12 µM; in the experiment with SN12C renal it was 11.2 µM; in the experiment on OVCAR-4 ovarian it was 18.5 µM.

Take `COc1ccc(-c2nc(/C=C3\SC(=NCc4ccccc4)NC3=O)c3ccccn23)cc1`: the GI50 was 1.39 µM with NCI/ADR-RES ovarian; 1.52 µM in the experiment on UACC-257 melanoma; 1.95 µM with U251 CNS; 1.28 µM in the experiment with PC-3 prostate; 2.31 µM with TK-10 renal; 2.71 µM in the experiment on SNB-19 CNS. Further, the GI50 in the experiment on NCI-H460 lung is 0.666 µM; with HT29 colon, 0.818 µM; with SN12C renal, 1.68 µM; with OVCAR-4 ovarian it was 1.39 µM. The total growth inhibition concentration (TGI) in the experiment with NCI/ADR-RES ovarian came to 5.76 µM; in the experiment with UACC-257 melanoma, 3.51 µM; in the experiment on PC-3 prostate, 4.35 µM; with TK-10 renal it was 5.24 µM; with SNB-19 CNS, 9.68 µM; in the experiment with NCI-H460 lung, 2.24 µM. Besides, the TGI with HT29 colon was determined as 2.17 µM; in the experiment on SN12C renal it was 4.63 µM; in the experiment on OVCAR-4 ovarian it was 2.84 µM.

In the case of `c1ccc2cc(-c3n(Cc4ccc5ccccc5n4)c4ccccc4[n+]3Cc3ccc4ccccc4n3)ccc2c1`, the GI50 was 6.6 µM in the experiment on NCI/ADR-RES ovarian; 0.275 µM in the experiment with UACC-257 melanoma; 0.242 µM in the experiment with U251 CNS; 0.184 µM with PC-3 prostate; 0.413 µM in the experiment on TK-10 renal; 0.315 µM in the experiment with SNB-19 CNS. The GI50 was 0.361 µM in the experiment with NCI-H460 lung, 0.256 µM with HT29 colon, 0.298 µM in the experiment on SN12C renal and 0.255 µM in the experiment with OVCAR-4 ovarian. Also, the TGI in the experiment with NCI/ADR-RES ovarian came to 26.4 µM; in the experiment with UACC-257 melanoma, 1.04 µM; with U251 CNS, 1.14 µM; with PC-3 prostate, 1.12 µM; in the experiment on TK-10 renal, 1.83 µM; in the experiment with SNB-19 CNS, 1.32 µM. In addition, the total growth inhibition concentration (TGI) turned out to be 1.31 µM in the experiment with NCI-H460 lung, 1.19 µM with HT29 colon, 1.11 µM in the experiment on SN12C renal and 1.13 µM with OVCAR-4 ovarian.

With `C(=N/N(Cc1ccccc1)Cc1ccccc1)/c1ccccc1`, the GI50 in the experiment with NCI/ADR-RES ovarian was above 100 µM; in the experiment on UACC-257 melanoma, 96.9 µM; in the experiment with U251 CNS it was above 100 µM; with PC-3 prostate, above 100 µM; in the experiment with TK-10 renal, above 100 µM; with SNB-19 CNS it was above 100 µM. Also, the GI50 in the experiment on NCI-H460 lung is above 100 µM; in the experiment on HT29 colon, 24.7 µM; in the experiment with SN12C renal, above 100 µM; in the experiment on OVCAR-4 ovarian it was above 100 µM. The total growth inhibition concentration (TGI) in the experiment on NCI/ADR-RES ovarian, with UACC-257 melanoma, with U251 CNS, in the experiment with PC-3 prostate, in the experiment with TK-10 renal and in the experiment on SNB-19 CNS was above 100 µM throughout. The TGI in the experiment with NCI-H460 lung, in the experiment with HT29 colon, with SN12C renal and in the experiment with OVCAR-4 ovarian was above 100 µM throughout.

For `COc1ccc(N(CC(=O)NCCC[Te]c2ccccc2)C(=O)CNC(=O)OC(C)(C)C)cc1`, the GI50 with NCI/ADR-RES ovarian is 2.91 µM; in the experiment on UACC-257 melanoma, 8.49 µM; with U251 CNS it was 2.37 µM; with PC-3 prostate, 1.72 µM; with TK-10 renal it was 3.93 µM; in the experiment on SNB-19 CNS it was 0.875 µM. Further, the GI50 is 0.45 µM with NCI-H460 lung, 3.82 µM with HT29 colon, 2.06 µM with SN12C renal and 22.6 µM with OVCAR-4 ovarian. Also, the TGI with NCI/ADR-RES ovarian was 7.16 µM; in the experiment with UACC-257 melanoma it was 23.9 µM; with U251 CNS, 6.51 µM; in the experiment on PC-3 prostate it was 10.1 µM; in the experiment on TK-10 renal it was 10.8 µM; in the experiment with SNB-19 CNS, 9.64 µM. In addition, the total growth inhibition concentration (TGI) is 1.85 µM in the experiment on NCI-H460 lung, 13.9 µM with HT29 colon, 4.97 µM in the experiment on SN12C renal and above 100 µM in the experiment on OVCAR-4 ovarian.

For `Oc1c(I)cc(I)c2cccnc12`, the GI50 in the experiment on NCI/ADR-RES ovarian was 2.48 µM; in the experiment on UACC-257 melanoma, 3.53 µM; in the experiment with U251 CNS, 3.74 µM; with PC-3 prostate, 4.68 µM; in the experiment on TK-10 renal, 1.68 µM; with SNB-19 CNS it was 3.33 µM. The GI50 was 2.93 µM with NCI-H460 lung, 8.91 µM in the experiment on HT29 colon, 6.67 µM in the experiment with SN12C renal and 3.94 µM with OVCAR-4 ovarian. The total growth inhibition concentration (TGI) in the experiment with NCI/ADR-RES ovarian was 8.84 µM; in the experiment with UACC-257 melanoma, 35.5 µM; in the experiment with U251 CNS, 25.3 µM; in the experiment on PC-3 prostate it was above 100 µM; in the experiment with TK-10 renal, 20.2 µM; in the experiment on SNB-19 CNS, 22.5 µM. For the same molecule, the TGI is 10.4 µM in the experiment with NCI-H460 lung, above 100 µM in the experiment with HT29 colon, 45.5 µM in the experiment with SN12C renal and above 100 µM with OVCAR-4 ovarian.
